Test results as given in BigSolDB 2.1.

CC(C)[C@H](NC(=O)OCC1c2ccccc2-c2ccccc21)C(=O)O
solubility (mole fraction)
Conditions	283.15 K	288.15 K	293.15 K	298.15 K	303.15 K	308.15 K	313.15 K	318.15 K	323.15 K
in 2-butanone	0.0403	0.0448	0.0509	0.057	0.0632	0.0699	0.0793	0.0902	0.102
in acetone	0.0449	0.0504	0.0568	0.0627	0.0707	0.0792	0.0915	0.104	0.121
in acetonitrile	0.00264	0.00327	0.00399	0.00477	0.00577	0.00703	0.00867	0.0105	0.0128
in dimethyl carbonate	0.0073	0.00766	0.00901	0.0108	0.0131	0.016	0.0196	0.0235	0.0294
in ethanol	0.0177	0.0243	0.0261	0.0312	0.0373	0.0462	0.057	0.0714	0.0877
in isobutanol	0.00967	0.0112	0.0127	0.0152	0.0186	0.0236	0.0296	0.0366	0.0541
in isopentanol	0.0103	0.0129	0.0159	0.0192	0.0231	0.0286	0.0351	0.0429	0.0552
in isopropanol	0.0105	0.0133	0.0161	0.0204	0.0271	0.0352	0.0448	0.0533	0.071
in methanol	0.0238	0.0259	0.0321	0.0396	0.0468	0.0571	0.0694	0.0846	0.0985
in n-butanol	0.0155	0.019	0.0216	0.0244	0.0287	0.0351	0.0434	0.0536	0.0728
in n-butyl acetate	0.0143	0.0162	0.0184	0.0209	0.0234	0.0273	0.0314	0.0362	0.0417
in n-pentanol	0.016	0.0172	0.0199	0.0233	0.0281	0.0344	0.0417	0.0495	0.0582
in n-propanol	0.0141	0.0169	0.0199	0.0227	0.0319	0.0398	0.0481	0.057	0.0742
in sec-butanol	0.016	0.0174	0.0222	0.0275	0.0349	0.0435	0.0549	0.0653	0.0801
